Test results as given in patent publication US20250129050A1, “SYNTHESIS OF A KIF18A INHIBITOR” (Amgen Inc., priority 2022, published 2025).
“Also recorded” adds a separate entry of the source.

Test: Dynamic Vapor Sorption (DVS) moisture sorption with pre and post DVS XRPD
Type: physicochemical
Conditions: after exposure to 80% relative humidity at 25° C. for 24 hours; hydrate
Description: Moisture sorption data were collected using a DVS Endeavour. A sample size of about 30 mg was used. The temperature was 25° C. The relative humidity (RH) was held to 80% for 24 hours. Mass was recorded at the beginning and end of the experiment. Stability and Hygroscopicity Features of Crystalline Compound 6a-I as shown by Pre and Post DVS XRPD Experiment: Crystalline Compound 6a-I was exposed to 80% relative humidity at 25° C. for 24 hours using a DVS Endeavor instrument. The mass was recorded at the beginning and end of the exposure. […] Dynamic Vapor Sorption (DVS): The crystalline Compound 6a-I can be characterized by a DVS moisture sorption profile.

O=S(CCOCc1ccccc1)[O][Ca][O]S(=O)CCOCc1ccccc1 (stereo not shown) [Compound 6a-I, calcium 2-(benzyloxy)ethane-1-sulfinate 4/3 hydrate]
crystalline form stability (XRPD pre DVS vs post DVS): no crystalline form change; also recorded: stable crystalline polymorph form
